Consider two compounds from US20130303565A1 (priority 2012, published 2013).

SMILES strings stand for the structures.

The test system of one data set is Bcr-Abl tyrosine kinase. The conditions noted are these: inhibiting activity of the Bcr-Abl tyrosine kinase and proliferation, versus imatinib; cited from earlier work.
The subject of data set [1] is HL-60 (human promyelocytic cells). As to the kind of experiment: Cell proliferation assay (Trypan Blue dye exclusion), HL60. The settings on record: tritoqualine 10^-5-10^-8 M, 72 hr, with or without G-CSF 50 ng/mL. Type of data set: cell-based. The protocol: (§1) U937 (monocytic leukemia cells), and HL-60 (human promyelocytic cells) and TF1 (Human erythro leukemia cells) were obtained from cell bank of Necker. HL-60, U937 and TF1 were maintained. in RPMI-1640 medium supplemented with 10% FCS, 100 U/mL penicillin, and 100 μg/mL streptomycin. These cells were cultured in an incubator containing humidified air with 5% CO2 at […].
(§2) HL60, U937, TF1 cells (5×10^5 cells/mL) in conditioning medium were cultured with various concentrations of tritoqualine (10^−5-10^−8 M) in the presence or absence of G-CSF (50 ng/mL) in 6-well flat-bottomed plates for 72 hr. Cell proliferation assay and viability examination were performed using the Trypan Blue dye exclusion method. All experiments were performed in triplicate.
(§3) The maximum effect is on TF1 cells line. The inhibition is about 85%. The effect on HL60 is only 60% of inhibition. This effect dose is equivalent to the dose of 200 mg to 2000 mg of tritoqualine in human. This effect on leukemia clone is very surprising because tritoqualine is a molecule with low toxicity.

Data set [2] has as its system TF1 (Human erythro leukemia cells). As to the kind of experiment: Cell proliferation assay (Trypan Blue dye exclusion), TF1. Type of data set: cell-based. The settings on record: tritoqualine 10^-5-10^-8 M, 72 hr, with or without G-CSF 50 ng/mL. The protocol:
as §1, §2, §3

Data set [3] relates to U937 (monocytic leukemia cells). The data set can be described thus: Cell proliferation assay (Trypan Blue dye exclusion), U937. Type of data set: cell-based. The conditions noted are these: each leukemic cell line incl. U937, tritoqualine 10^-5-10^-8 M, 72 hr. The protocol: as §1, §2, §3
The next data set has as its target histamine H4 (Homo sapiens, UniProt Q9H3N8). As to the kind of experiment: Histamine H4 agonist activity.

Sequence of histamine H4 (Q9H3N8 whole entry): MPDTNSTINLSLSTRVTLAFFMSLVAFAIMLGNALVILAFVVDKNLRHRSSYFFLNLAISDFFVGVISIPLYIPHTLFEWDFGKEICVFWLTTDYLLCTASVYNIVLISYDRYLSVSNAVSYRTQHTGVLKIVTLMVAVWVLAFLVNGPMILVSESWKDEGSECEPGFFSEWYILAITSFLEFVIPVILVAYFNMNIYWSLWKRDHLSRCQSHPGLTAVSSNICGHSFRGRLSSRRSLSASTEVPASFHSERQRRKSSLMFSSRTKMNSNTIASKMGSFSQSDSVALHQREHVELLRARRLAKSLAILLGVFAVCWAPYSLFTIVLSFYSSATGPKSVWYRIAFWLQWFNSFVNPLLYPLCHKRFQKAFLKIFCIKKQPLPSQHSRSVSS

As for `Cc1cn(-c2cc(NC(=O)c3ccc(C)c(Nc4nccc(-c5cccnc5)n4)c3)cc(C(F)(F)F)c2)cn1` [Nilotinib], the “potency relative to imatinib” value in the data set with Bcr-Abl tyrosine kinase is recorded as 10-30 fold.
As to `CCOc1c(N)c2c(c(OCC)c1OCC)C(C1c3c(cc4c(c3OC)OCO4)CCN1C)OC2=O` (centres unmarked) [tritoqualine, 7-Amino-4,5,6-triethoxy-3-(5,6,7,8-tetrahydro-4-methoxy-6-methyl-1,3-dioxolo[4,5-g]isoquinolin-5-yl) phthalide], in data set [1], the “inhibition of proliferation and viability” value was determined as 60%. In data set [2], the “inhibition of proliferation and viability (maximum effect)” value is given as “about 85%”. Further, in data set [3], the “inhibition of proliferation and viability (in words)” value is “dose-dependently inhibited proliferation and viability”. For the same compound, at histamine H4, the “histamine H4 activity (in words)” value is recorded as “histamine H4 agonist”.
